Legend:
[1] = tested on: vegetative forms of yeast, mold, and bacteria; settings: reported by the manufacturer of DMDC; cited from earlier work
[2] = Example 8: growth/no growth in energy beverage pH 2.85, 16 weeks; assay type: cell-based; settings: pH 2.9, read-out: minimum inhibitory concentration of DMDC required to preserve
Protocol: A single preparation of base beverage was employed to prepare each of five tests. The beverage formulation chosen mimics that of a Energy beverage and is composed per liter as follows: 209 mg Rebaudioside A (REB A), 248 mg Potassium Citrate 248 mg Flavor-vitamin mixture, 248 mg calcium lactate, 298 mg Xanthan gum, 668 mg citric acid 995 mg color, 995 mg Pomegranate flavor, 24900 mg erythritol. The ingredients were added to RO water adjusted to 90 ppm hardness with calcium chloride and magnesium chloride. The acidity of the product was adjusted to pH 2.85 with a mixture of citric acid and sodium citrate.
Each of the five tests employed the same bio-indicator organisms; Growth (+) versus no growth (−) established by visual inspection or spectrophotometrically. The organisms and the key (code) employed in FIGS. 7a-7e are as follows: Spores, M1 Paecilomyces/Byssochalmys nieva, Pespi isolate D16; C-8UP, Brettanomyces species, Pepsi Isolate; M6, Talaromyces flavus var. flavus ATCC 10512; Brettanomyces species, Pepsi isolate H2O2; Spores, M12 Penicillium camebertii (Pepsi isolate D1)”; an ascospore preparation of Saccharomyces cerevisiae strain 99(Spore) and Y3, Zygosaccharomyce baili Pepsi isolate 906;. Samples were incubated for period of 16 weeks at 25° C. in vessels protective against evaporation. The results are depicted in FIGS. 7a-7e.

[3] = tested on: bio-indicator organisms (Zygosaccharomyce baili, Brettanomyces species, Saccharomyces cerevisiae, Paecilomyces lilacinus, Zygosaccharomyces bisporus …); settings: FIG. 2a; absence of cinnamic acid; pH 3.4; 16 weeks
Excerpt: A single preparation of base beverage was employed to prepare each of five tests and consisted of 4% apple juice, 68 g sucrose/L, 52 g glucose/L, 2 g fructose/L prepared in batch water that was formulated to 90 ppm hardness with calcium chloride and magnesium chloride. A pH of 3.4 was achieved through combinations of malic acid and sodium malate for all preparations regardless of the presence or absence of lauric arginate or cinnamic acid. The total combined quantity of sodium malate and malic acid was near constant, but the ratio of malic acid and malate varied slightly given the presence or absence of lauric arginate or cinnamic acid. […] Where required, lauric arginate or cinnamic acid was supplemented from separately prepared stock solutions. Dimethyl dicarbonate was delivered by means of hypodermic needle (Hamilton syringe) through septum that sealed the test vessel against loss of moisture. Dimethyl dicarbonate stock solution consisted of 1 ml of dimethyl dicarbonate (1.25 g) in 49 ml of 100% ethanol (25 mg/ml).
Each of the five tests employed the same bio-indicator organisms; Growth (+) versus no growth (−) established by visual inspection or spectrophotometrically. […]

[4] = tested on: bio-indicator organisms (Zygosaccharomyce baili, Brettanomyces species, Saccharomyces cerevisiae, Paecilomyces lilacinus, Zygosaccharomyces bisporus …); assay: Example 4: efficacy of DMDC alone in commercial product types and apple juice medium, 16 weeks; assay type: cell-based
Protocol: The efficacy of DMDC in a range of existing commercial product types was established in order to establish a baseline for future testing of products in development. A separate test of efficacy of DMDC alone in the test apple juice medium is used in comparison. Simply, four different products that are packaged without preservatives (aseptic package) were purchased from local markets.
The base test beverage formulation (Apple Juice Medium) was prepared as in other tests herewithin, and consisted of 4% apple juice, 68 g sucrose/L, 52 g glucose/L, 2 g fructose/L prepared in batch water that was formulated to 90 ppm hardness with calcium chloride and magnesium chloride. A pH of 3.4 was achieved through combinations of malic acid and sodium malate
Product was transferred to test vessels and vessels were inoculated with bio-indicator organisms. Immediately after inoculation, the test vessels were sealed with septum seal that allowed dosing of DMDC by Hamilton syringe. Dimethyl dicarbonate stock solution consisted of 1 ml of dimethyl dicarbonate (1.25 g) in 49 ml of 100% ethanol (25 mg/ml). […] After dosing with DMDC, the content of each test vessel was immediately mixed by vortex mixing. All testing was performed at ambient and test solutions were at ambient. […]

[5] = tested on: bio-indicator organisms; mold strains M1 (Paecilomyces/Byssochalmys nieva) and M6 (Talaromyces flavus var. flavus); assay: Example 6: growth/no growth in enhanced water product pH 4.5, 16 weeks; assay type: cell-based; settings: FIG. 5a; enhanced water pH 4.5; DMDC singular antimicrobial agent
Protocol: A single preparation of base beverage was employed to prepare each of five tests. The beverage formulation chosen mimics that of an enhanced water product and is composed per liter as follows 37.2 mg Acesulfame K+; 100mg Vitamin E acetate, 54.1 mg Vitamin B mix, 331 mg sucralose 748 mg grape flavor, 3236 mg of liquid sucrose, 26.5 mg antifoam, 20 mg polysorbate. The ingredients were added to RO water adjusted to 90 ppm hardness with calcium chloride and magnesium chloride. The acidity of the product was adjusted to pH 4.5 with a mixture of succinic acid and Sodium succinate dibasic hexadydrate. The total concentration of succinic acid in solution was approximately 8 mM.
Each of the five tests employed the same bio-indicator organisms; Growth (+) versus no growth (−) established by visual inspection or spectrophotometrically. The organisms and the key (code) employed in FIGS. 5a-5e are as follows: Spores, M1 Paecilomyces/Byssochalmys nieva, Pespi isolate D16; C-7UP, Brettanomyces species, Pepsi Isolate; Spores, M6, Talaromyces flavus var. flavus ATCC 10512; Brettanomyces species, Pepsi isolate H202; Acetobacter species, Pepsi isolate “Atlanta”; an ascospore preparation of Saccharomyces cerevisiae strain 99(Spore) and Y3, Zygosaccharomyce baili, Pepsi isolate 906;. Samples were incubated for period of 16 weeks at 25° C. in vessels protective against evaporation. […]

[6] = tested on: bio-indicator organisms; mold strains M1 (Paecilomyces/Byssochalmys nieva) and M6 (Talaromyces flavus var. flavus); assay: Example 7: growth/no growth in green tea beverage pH 5.5, 16 weeks; assay type: cell-based; settings: pH 5.5, read-out: minimum inhibitory concentration of DMDC required to preserve
Protocol: A single preparation of base beverage was employed to prepare each of five tests. The beverage formulation chosen mimics that of a green tea beverage composed per liter as follows: 170 mg Citrus Pectin; 500 mg honey granules 550 mg Acerola Dry Vitamin C, 1,332 mg green tea solid, 2,046 mg tea flavor; 65,590 mg granulated sucrose. The ingredients were added to RO water adjusted to 90 ppm hardness with calcium chloride and magnesium chloride. The acidity of the product was adjusted to pH 5.5 with a mixture of succinic acid and sodium succinate dibasic hexadydrate. The total concentration of succinic acid in solution was approximately 8 mM.
Each of the five tests employed the same bio-indicator organisms; Growth (+) versus no growth (−) established by visual inspection or spectrophotometrically. The organisms and the key (code) employed in FIGS. 6a-6e are as follows: Spores, M1 Paecilomyces/Byssochalmys nieva, Pespi isolate D16; C-7UP, Brettanomyces species, Pepsi Isolate; Spores, M6, Talaromyces flavus var. flavus ATCC 10512; Brettanomyces species, Pepsi isolate H202; Acetobacter species, Pepsi isolate “Atlanta”; an ascospore preparation of Saccharomyces cerevisiae strain 99(Spore) and Y3, Zygosaccharomyce baili, Pepsi isolate 906;. Samples were incubated for period of 16 weeks at 25° C. in vessels protective against evaporation. The results are depicted in FIGS. 6a-6e.

[7] = tested on: mold spores (Byssochlamyus nieva and Paecilomyces variotti); assay: Germination of bio-indicator mold spores with ascorbic acid and potassium sorbate; assay type: cell-based
Excerpt: Ascorbic acid may be incorporated as part of the microbiological chemical preservation system. Ascorbic acid is not generally considered an antimicrobial. Instead, ascorbic acid is understood to “preserve” food ingredients against oxidation. In this respect, ascorbic acid is understood to be “anti-oxidant” preservative.

Structure (SMILES): COC(=O)OC(=O)OC [DMDC, dimethyl dicarbonate]
- concentration required to stabilize beverage for 16 weeks [1]: at least 250 mg/liter
- MIC [2]: < 125 µg/mL
- DMDC required to inhibit the growth of all bio-indicator organisms [3]: 0.95 mM
- stability against spoilage ([4]; commercial tea beverage (pH 3.3) with honey, DMDC 2.61 mM (350 ppm)): unstable against spoilage
- DMDC concentration that stabilized the formulation ([4]; green tea formulation containing lemon flavor, DMDC alone): 0.75 mM
- concentration of DMDC tolerated by M1 and M6 [5]: ≥ 200 ppm
- MIC [6]: > 225 µg/mL

Structure (SMILES): C/C=C/C=C/C(=O)[O-].[K+] [Potassium sorbate, Potassium Sorbate, reference compound]
- prevention of spore germination ([7]; Potassium sorbate alone at concentrations below 200 ppm): unable to prevent spore germination

Structure (SMILES): O=C1O[C@H]([C@@H](O)CO)C(O)=C1O [ascorbic acid]
- effect on spore germination ([7]; ascorbic acid alone at 400 ppm): able to retard germination

Source: patent publication US20100151104A1, “Preservative System For Beverages Based On Combinations Of Trans-Cinnamic Acid, Lauric Arginate, And Dimethyl Dicarbonate” (priority 2008, published 2010)
